Data taken from ChEMBL document CHEMBL4270599, “Synthesis of a 3'-C-ethynyl-β-d-ribofuranose purine nucleoside library: Discovery of C7-deazapurine analogs as potent antiproliferative nucleosides” (Eur J Med Chem, 2018).

Tests used:
EKVX = test: Cytotoxicity against human EKVX cells after 48 hrs by SRB assay; format: functional; details: for GI50: read-out: GI50; for TGI: read-out: TGI; for CC50: read-out: pLC50 (the source's name) (converted)
U-251 = test: Cytotoxicity against human U251 cells after 48 hrs by SRB assay; format: functional; details: U-251, 48 h; for GI50: read-out: GI50
SK-MEL-2 = test: Cytotoxicity against human SK-MEL-2 cells after 48 hrs by SRB assay; format: functional; details: SK-MEL-2, 48 h; for GI50: read-out: GI50; for CC50: read-out: LC50 (the source's name); for TGI: read-out: TGI
SK-MEL-5 = test: Cytotoxicity against human SK-MEL-5 cells after 48 hrs by SRB assay; format: functional; details: SK-MEL-5, 48 h; for GI50: read-out: GI50; for CC50: read-out: LC50 (the source's name); for TGI: read-out: TGI
A498 = test: Cytotoxicity against human A498 cells after 48 hrs by SRB assay; format: functional; details: A498, 48 h; for GI50: read-out: GI50; for CC50: read-out: LC50 (the source's name); for TGI: read-out: TGI
ACHN [1] = test: Cytotoxicity against human ACHN cells after 48 hrs by SRB assay; format: functional; details: for CC50: read-out: pLC50 (the source's name) (converted)
DU-145 = test: Cytotoxicity against human DU145 cells after 48 hrs by SRB assay; format: functional; details: DU-145, 48 h; for GI50: read-out: GI50; for CC50: read-out: pLC50 (the source's name) (converted)
MCF7 [2] = test: Cytotoxicity against human MCF7 cells after 48 hrs by SRB assay; format: functional; details: MCF7, 48 h
SW-620 = test: Growth inhibition of human SW620 cells assessed as cell growth at 10^-8 M incubated for 48 hrs by sulforhodamine B assay relative to control; format: functional; details: SW-620, 48 h, read-out: Activity
M14 [3] = test: Growth inhibition of human M14 cells assessed as cell growth at 10^-8 M incubated for 48 hrs by sulforhodamine B assay relative to control; format: functional; details: M14, 48 h, read-out: Activity
MDA-MB-435 = test: Growth inhibition of human MDA-MB-435 cells assessed as cell growth at 10^-8 M incubated for 48 hrs by sulforhodamine B assay relative to control; format: functional; details: MDA-MB-435, 48 h, read-out: Activity
SK-MEL-28 = test: Growth inhibition of human SK-MEL-28 cells assessed as cell growth at 10^-8 M incubated for 48 hrs by sulforhodamine B assay relative to control; format: functional; details: SK-MEL-28, 48 h, read-out: Activity
OVCAR-3 [4] = test: Growth inhibition of human OVCAR3 cells assessed as cell growth at 10^-8 M incubated for 48 hrs by sulforhodamine B assay relative to control; format: functional; details: OVCAR-3, 48 h, read-out: Activity
TK-10 [5] = test: Growth inhibition of human TK10 cells assessed as cell growth at 10^-8 M incubated for 48 hrs by sulforhodamine B assay relative to control; format: functional; details: TK-10, 48 h, read-out: Activity
UO-31 = test: Growth inhibition of human UO31 cells assessed as cell growth at 10^-8 M incubated for 48 hrs by sulforhodamine B assay relative to control; format: functional; details: UO-31, 48 h, read-out: Activity
NCI-H226 = test: Growth inhibition of human NCI-H226 cells assessed as cell growth at 10^-7 M incubated for 48 hrs by sulforhodamine B assay relative to control; format: functional; details: NCI-H226, 48 h, read-out: Activity
KM12 [6] = test: Growth inhibition of human KM12 cells assessed as cell growth at 10^-7 M incubated for 48 hrs by sulforhodamine B assay relative to control; format: functional; details: KM12, 48 h, read-out: Activity
M14 [7] = test: Growth inhibition of human M14 cells assessed as cell growth at 10^-7 M incubated for 48 hrs by sulforhodamine B assay relative to control; format: functional; details: M14, 48 h, read-out: Activity
OVCAR-3 [8] = test: Growth inhibition of human OVCAR3 cells assessed as cell growth at 10^-7 M incubated for 48 hrs by sulforhodamine B assay relative to control; format: functional; details: OVCAR-3, 48 h, read-out: Activity
NCI/ADR-RES = test: Growth inhibition of human NCI/ADR-RES cells assessed as cell growth at 10^-7 M incubated for 48 hrs by sulforhodamine B assay relative to control; format: functional; details: read-out: Activity
ACHN [9] = test: Growth inhibition of human ACHN cells assessed as cell growth at 10^-7 M incubated for 48 hrs by sulforhodamine B assay relative to control; format: functional; details: read-out: Activity
Hs-578T = test: Growth inhibition of human Hs 578T cells assessed as cell growth at 10^-7 M incubated for 48 hrs by sulforhodamine B assay relative to control; format: functional; details: read-out: Activity
HOP-62 = test: Growth inhibition of human HOP62 cells assessed as cell growth at 10^-6 M incubated for 48 hrs by sulforhodamine B assay relative to control; format: functional; details: HOP-62, 48 h, read-out: Activity
HCC 2998 = test: Growth inhibition of human HCC2998 cells assessed as cell growth at 10^-6 M incubated for 48 hrs by sulforhodamine B assay relative to control; format: functional; details: HCC 2998, 48 h, read-out: Activity
SF-295 = test: Growth inhibition of human SF295 cells assessed as cell growth at 10^-6 M incubated for 48 hrs by sulforhodamine B assay relative to control; format: functional; details: SF-295, 48 h, read-out: Activity
SF-539 = test: Growth inhibition of human SF539 cells assessed as cell growth at 10^-6 M incubated for 48 hrs by sulforhodamine B assay relative to control; format: functional; details: SF-539, 48 h, read-out: Activity
KM12 [10] = test: Growth inhibition of human KM12 cells assessed as cell growth at 10^-5 M incubated for 48 hrs by sulforhodamine B assay relative to control; format: functional; details: KM12, 48 h, read-out: Activity
MCF7 [11] = test: Growth inhibition of human MCF7 cells assessed as cell growth at 10^-5 M incubated for 48 hrs by sulforhodamine B assay relative to control; format: functional; details: MCF7, 48 h, read-out: Activity
OVCAR-4 = test: Growth inhibition of human OVCAR4 cells assessed as cell growth at 10^-4 M incubated for 48 hrs by sulforhodamine B assay relative to control; format: functional; details: OVCAR-4, 48 h, read-out: Activity
MCF7 [12] = test: Growth inhibition of human MCF7 cells assessed as cell growth at 10^-4 M incubated for 48 hrs by sulforhodamine B assay relative to control; format: functional; details: MCF7, 48 h, read-out: Activity
[13] = Antiproliferative activity against HELF cells after 4 days by Coulter counter method; format: cell-based; details: Homo sapiens, 96 h
TK-10 [14] = test: Growth inhibition of human TK10 cells assessed as cell growth at 10^-5 M incubated for 48 hrs by sulforhodamine B assay relative to control; format: functional; details: TK-10, 48 h, read-out: Activity
HT-29 = test: Growth inhibition of human HT-29 cells assessed as cell growth at 10^-4 M incubated for 48 hrs by sulforhodamine B assay relative to control; format: functional; details: HT-29, 48 h, read-out: Activity
[15] = read-out: pLC50 (the source's name) (converted)
[16] = read-out: LC50 (the source's name)

In the case of `C#C[C@@]1(O)[C@@H](CO)O[C@@H](n2cc(I)c3c(N)ncnc32)[C@@H]1O`, the GI50 (EKVX) is reported as 395 to 421 nM, the TGI (EKVX) is reported as 4040 to 7140 nM and the CC50 (EKVX) is reported as > 100000 nM. For the same compound, the GI50 (U-251) was 67.3 to 80.2 nM, the TGI (U-251; read-out: TGI) was 10200 to 100000 nM and the CC50 (U-251; [15]) was > 100000 nM. For the same compound, the GI50 (SK-MEL-2) was 177 to 321 nM, the CC50 (SK-MEL-2) was 7770 to 100000 nM and the TGI (SK-MEL-2) was 1590 to 1950 nM. The GI50 (SK-MEL-5) was 179 to 243 nM, the CC50 (SK-MEL-5) was > 100000 nM and the TGI (SK-MEL-5) was 2090 to 5200 nM. The GI50 (A498) was 211 to 453 nM, the CC50 (A498) was 4690 to 6400 nM and the TGI (A498) was 1030 to 1980 nM. The GI50 (ACHN [1]) was 316 nM, the TGI (ACHN [1]; read-out: TGI) was > 100000 nM and the CC50 (ACHN [1]) was > 100000 nM. The TGI (ACHN [1]; read-out: pTGI (converted)) was > 100000 nM, the GI50 (DU-145) was 98.3 to 164 nM and the TGI (DU-145; read-out: TGI) was > 100000 nM. The CC50 (DU-145) was > 100000 nM, the TGI (DU-145; read-out: pTGI (converted)) was > 100000 nM and the TGI (MCF7 [2]; read-out: TGI) was > 100000 nM. The CC50 (MCF7 [2]; [15]) was > 100000 nM, the TGI (MCF7 [2]; read-out: pTGI (converted)) was > 100000 nM and the growth at 0.01 µM (SW-620) was 85 to 86%. It also gave a growth at 0.01 µM (M14 [3]) of 85 to 94%, a growth at 0.01 µM (MDA-MB-435) of 83 to 93% and a growth at 0.01 µM (SK-MEL-28) of 88 to 97%. For the same compound, the growth at 0.01 µM (OVCAR-3 [4]) was 91 to 98%, the growth at 0.01 µM (TK-10 [5]) was 85 to 94% and the growth at 0.01 µM (UO-31) was 84 to 85%. It also gave a growth at 0.1 µM (NCI-H226) of 75 to 95%, a growth at 0.1 µM (KM12 [6]) of 49 to 50% and a growth at 0.1 µM (M14 [7]) of 67 to 75%. For the same compound, the growth at 0.1 µM (OVCAR-3 [8]) was 76 to 79%, the growth at 0.1 µM (NCI/ADR-RES) was 41 to 47% and the growth at 0.1 µM (ACHN [9]) was 72%. For the same compound, the growth at 0.1 µM (Hs-578T) was 73 to 84%, the growth at 1 µM (HOP-62) was 33 to 61% and the growth at 1 µM (HCC 2998) was 11 to 16%. The growth at 1 µM (SF-295) was 31 to 35%, the growth at 1 µM (SF-539) was 23 to 35% and the growth at 10 µM (KM12 [10]) was 3 to 12%. For the same compound, the growth at 10 µM (MCF7 [11]) was 1 to 5%, the growth at 100 µM (OVCAR-4) was 9 to 14% and the growth at 100 µM (MCF7 [12]) was 1 to 3%. For the same compound, the IC50 [13] was 32 nM.

For `C#C[C@@]1(O)[C@@H](CO)O[C@@H](n2cc(Br)c3c(N)ncnc32)[C@@H]1O`, the GI50 (EKVX) was 150 to 261 nM, the TGI (EKVX) was 1250 to 5750 nM and the CC50 (EKVX) was > 100000 nM. The GI50 (U-251) was 13.2 to 30.9 nM, the CC50 (U-251; [16]) was > 100000 nM and the GI50 (SK-MEL-2) was 197 to 916 nM. The CC50 (SK-MEL-2) was 49500 to 100000 nM, the TGI (SK-MEL-2) was 430 to 758 nM and the GI50 (SK-MEL-5) was 47.8 to 239 nM. The CC50 (SK-MEL-5) was 6240 to 100000 nM, the TGI (SK-MEL-5) was 522 to 7180 nM and the GI50 (A498) was 185 to 280 nM. For the same compound, the CC50 (A498) was 940 to 4210 nM, the TGI (A498) was 417 to 828 nM and the GI50 (ACHN [1]) was 234 nM. For the same compound, the CC50 (ACHN [1]) was > 100000 nM, the GI50 (DU-145) was 62.8 to 151 nM and the TGI (DU-145; read-out: TGI) was > 100000 nM. The CC50 (DU-145) was > 100000 nM, the TGI (DU-145; read-out: pTGI (converted)) was > 100000 nM and the GI50 (MCF7 [2]; read-out: GI50) was 16 to 30.7 nM. The CC50 (MCF7 [2]; [16]) was > 100000 nM, the TGI (MCF7 [2]; read-out: TGI) was 1190 to 1810 nM and the growth at 0.01 µM (SW-620) was 81 to 89%. It also gave a growth at 0.01 µM (M14 [3]) of 92 to 94%, a growth at 0.01 µM (MDA-MB-435) of 89 to 92% and a growth at 0.01 µM (SK-MEL-28) of 93 to 96%. The growth at 0.01 µM (OVCAR-3 [4]) was 99 to 101%, the growth at 0.01 µM (TK-10 [5]) was 100 to 106% and the growth at 0.01 µM (UO-31) was 70 to 84%. It also gave a growth at 0.1 µM (NCI-H226) of 81 to 98%, a growth at 0.1 µM (KM12 [6]) of 49 to 53% and a growth at 0.1 µM (M14 [7]) of 56 to 81%. It also gave a growth at 0.1 µM (OVCAR-3 [8]) of 62 to 72%, a growth at 0.1 µM (NCI/ADR-RES) of 34 to 41% and a growth at 0.1 µM (ACHN [9]) of 75%. The growth at 0.1 µM (Hs-578T) was 92 to 97%, the growth at 1 µM (HOP-62) was 12 to 29% and the growth at 1 µM (SF-295) was 24 to 36%. The growth at 1 µM (SF-539) was 3 to 19%, the growth at 10 µM (KM12 [10]) was 7 to 12% and the growth at 10 µM (TK-10 [14]) was 12%. It also gave a growth at 100 µM (HT-29) of 1 to 2%, a growth at 100 µM (OVCAR-4) of 3 to 15% and an IC50 [13] of 17 nM.
